# Reference: patent US20250281460A1, “PEGYLATED BILIRUBIN FOR THE TREATMENT OF […], OBESITY, FATTY LIVER DISEASE, CARDIOVASCULAR DISEASES AND TYPE II DIABETES” (The University of Toledo, priority 2019, published 2025)
# Columns and labels:
# PPARα = molecular target: T1, PPARα (Mus musculus, UniProt P23204)
# T1 sequence (P23204 1-468): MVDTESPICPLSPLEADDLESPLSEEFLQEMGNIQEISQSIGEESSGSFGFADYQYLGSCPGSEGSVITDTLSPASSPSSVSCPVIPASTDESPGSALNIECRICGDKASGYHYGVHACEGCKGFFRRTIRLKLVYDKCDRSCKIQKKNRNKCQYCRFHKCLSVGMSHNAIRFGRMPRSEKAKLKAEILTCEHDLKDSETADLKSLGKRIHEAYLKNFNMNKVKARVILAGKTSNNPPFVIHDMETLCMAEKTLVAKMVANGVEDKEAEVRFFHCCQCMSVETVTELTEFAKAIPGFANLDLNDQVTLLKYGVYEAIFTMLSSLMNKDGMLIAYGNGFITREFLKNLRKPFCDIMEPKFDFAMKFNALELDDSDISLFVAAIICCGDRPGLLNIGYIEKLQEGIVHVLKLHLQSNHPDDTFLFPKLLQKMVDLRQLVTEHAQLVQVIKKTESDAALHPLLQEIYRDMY
# Procedure: Cells were crosslinked with formaldehyde with a final concentration of 1% in media while shaking at room temperature for 10 min. The activity of the formaldehyde was quench with the addition of glycine while rocking for 5 min at room temperature. Cells were washed twice with 1×PBS, collected into a 15 ml conical tube and spun down at 3,000 rpm for 5 min. Pellets were rapidly frozen on dry ice ethanol mix and stored at −80° C. for a minimum of 1 hour or immediately resuspended in a series of lysis buffers (see table for ChIP buffer table) containing protease inhibitors for 5 min. Cells were sonicated for approximately 8 min per sample. The lysates were centrifuged for 10 min at 4° C. at 13,000 rpm. The lysates were pre-cleared in BSA/Salmon sperm blocked beads rotating for 2 hours at 4° C. […] Lysates were then incubated with Agarose A beads and rotated for 4 hours at 4° C. The samples were then washed with a ChIP washing buffer (see table for ChIP buffer table) 5 times. The protein was eluted in an Elution buffer at 65° C. for 30 min shaking every 2 min. The eluted samples were transferred to another tube and incubated at 65° C. overnight to reverse crosslinking. The samples were purified after 1-hour incubation with Proteinase K at 55° C. with a isopropanol/chloroform/ethanol mixture. DNA was quantified on a NanoDrop 2000 spectrophotometer (Thermo Fisher Scientific, Wilmington, DE). PCR amplification of the genomic DNA was performed by quantitative real-time PCR using TrueAmp SYBR Green qPCR SuperMix (Advance Bioscience). The thermocycling protocol consisted of 2 min at 50° C. and then 10 min at 95° C., 48 cycles of 30 sec at 95° C., 1 min at 65° C.
# 3T3-Vector cells = experiment: SeaHorse mitochondrial respiration in 3T3-Vector cells; assay type: cell-based, mouse; settings: lentiviral empty vector control cells
# From the text: To investigate the specific role of bilirubin on PPARα or PPARγ as well as mitochondrial function and gene regulation, 3T3-LI cells that overexpressed each receptor (3T3-PPARα or 3T3-PPARγ2) were generated via lentivirus (FIGS. 2A-2B). […] The 3T3-Vector cells had no responses to biliverdin in FIGS. 2A-2B.
# Cellular respiration was quantified using the Seahorse Extracellular Flux Analyzer XF-96 (Agilent Technologies, Cedar Creek, TX). The Seahorse XF Cell Mito Stress Test Kit (Agilent Technologies, Cat #103015-100) was used for analysis of cellular respiration. BAT or 3T3-L1 cells were seeded on a XF96 cell culture microplate (Agilent 101085-004) at 20,000 cells per well. Cells were then differentiated as previously described for 9 days. […] The oxygen consumption rate (OCR) and extracellular acidification rate (ECAR) were used to quantify the cellular energy phenotype of the cells. After treatment, cells were washed twice with Seahorse Bioscience Assay Media (XF Base media with 25 mM Glucose, 2 mM […], and 1 mM Sodium Pyruvate) then incubated with the buffer for 1 hour in a non-CO2 incubator. The Seahorse Cartridge ports were loaded with […] of assay media with […] FCCP, 10 μM Oligomycin, 5 μM Rotenone/Antimycin A in different ports an hour before assay. […] The raw data and graphs were supplied as an Excel File or Graphpad Prizm file.
# [1] = system: BAT PPARα CRISPR KO cells; experiment: Seahorse analysis in BAT PPARα CRISPR KO cells; assay type: cell-based, mouse; settings: both KO clones, 24 hours
# From the text: To further delineate the actions of bilirubin on BAT, CRISPR technology was developed to knockout (KO) PPARα and establish two null clone lines. […]. The function of the ligands was lost in both clones for the BAT PPARα CRISPR KO cells.
# CRISPR-Technology was employed in BAT as previously described to excise part of Exon 3 and Exon 4 of the PPARα gene to create a PPARα Knockout BAT cell line. Two sgRNAs with high efficacy and low off-target scores were identified on Exon 3 and 4 of the mouse PPARα gene using Benchling online software. The two Cas9 targets were separated by 9,465 bases. All of the off-targets to our PPARα sgRNA had 4 mismatches, of which at least 1-2 were within the seed region (up to 12 bases proximal to the protospacer adjacent motif (PAM) site) which reduces the likelihood of Cas9 off-target effects. The multiplex sgRNAs were generated using the PrecisionX Multiplex gRNA Cloning Kit according to manufacturer instructions. […] After 36 h of transfection, cells with the top 10% level of fluorescence were single-sorted into 96-well plates by fluorescent activated cell sorting. […]
# Cellular respiration was quantified using the Seahorse Extracellular Flux Analyzer XF-96 (Agilent Technologies, Cedar Creek, TX). […] The oxygen consumption rate (OCR) and extracellular acidification rate (ECAR) were used to quantify the cellular energy phenotype of the cells. […]
# BAT cells = experiment: Lipid accumulation over differentiation of BAT cells; settings: increasing doses over the differentiation of the BAT cells
# From the text: Upon differentiation, cells were stained with Nile Red to visualize lipid content, and densitometry was used as a direct measure as previously described.
structure (smiles),measurement,setting,value
C=CC1=C(C)/C(=C/C2=NC(=C\c3[nH]c(/C=C4\NC(=O)C(C)=C4C=C)c(C)c3CCC(=O)O)/C(CCC(=O)O)=C2C)NC1=O [biliverdin],PPARα occupancy at the 13K enhancer of the Ucp1,"PPARα; 50 μM, 24 hours",significantly increased
same,PPARα occupancy at the −3306 to −3109 region of the Cpt1 promoter,"PPARα; 50 μM, 24 hours",significantly increased
same,occupancy of PPARα at 13K enhancer of the Ucp1,PPARα; BAT cells,increased
same,occupancy of PPARα at the Cpt1 promoter,PPARα; BAT cells,increased
same,occupancy of PPARα at the enhancer region of the Adrb3 promoter,PPARα; BAT cells,intensified
same,responses (mitochondrial respiration),3T3-Vector cells,no responses
same,function of the ligands on mitochondrial function (OCR),[1],lost
same,lipid accumulation,BAT cells,no impact
